Test results taken from patent US10710993B2, “Benzofuran pyrazole amine kinase inhibitor” (Hangzhou REX Pharmaceutical Co., LTD., priority 2016, dated 2020).

Assays:
[1] = target: T1, Wild-Type ALK (Homo sapiens, UniProt Q9UM73); assay: Z'-LYTE (FRET) ALK kinase inhibitory activity; type: biochemical
T1 construct: purchased Life Technology
Protocol: (§1) The kinase activity assay was determined by using kinase assay panel (Life Technology) and the result was in table 1.

[2] = target: T2, ALK L1196M (Homo sapiens, UniProt Q9UM73, L1196M); assay: LanthaScreen Eu Kinase Binding Assay (TR-FRET) on ALK mutant
T2 construct: purchased Life Technology
T2 sequence (Q9UM73 19-1620 L1196M): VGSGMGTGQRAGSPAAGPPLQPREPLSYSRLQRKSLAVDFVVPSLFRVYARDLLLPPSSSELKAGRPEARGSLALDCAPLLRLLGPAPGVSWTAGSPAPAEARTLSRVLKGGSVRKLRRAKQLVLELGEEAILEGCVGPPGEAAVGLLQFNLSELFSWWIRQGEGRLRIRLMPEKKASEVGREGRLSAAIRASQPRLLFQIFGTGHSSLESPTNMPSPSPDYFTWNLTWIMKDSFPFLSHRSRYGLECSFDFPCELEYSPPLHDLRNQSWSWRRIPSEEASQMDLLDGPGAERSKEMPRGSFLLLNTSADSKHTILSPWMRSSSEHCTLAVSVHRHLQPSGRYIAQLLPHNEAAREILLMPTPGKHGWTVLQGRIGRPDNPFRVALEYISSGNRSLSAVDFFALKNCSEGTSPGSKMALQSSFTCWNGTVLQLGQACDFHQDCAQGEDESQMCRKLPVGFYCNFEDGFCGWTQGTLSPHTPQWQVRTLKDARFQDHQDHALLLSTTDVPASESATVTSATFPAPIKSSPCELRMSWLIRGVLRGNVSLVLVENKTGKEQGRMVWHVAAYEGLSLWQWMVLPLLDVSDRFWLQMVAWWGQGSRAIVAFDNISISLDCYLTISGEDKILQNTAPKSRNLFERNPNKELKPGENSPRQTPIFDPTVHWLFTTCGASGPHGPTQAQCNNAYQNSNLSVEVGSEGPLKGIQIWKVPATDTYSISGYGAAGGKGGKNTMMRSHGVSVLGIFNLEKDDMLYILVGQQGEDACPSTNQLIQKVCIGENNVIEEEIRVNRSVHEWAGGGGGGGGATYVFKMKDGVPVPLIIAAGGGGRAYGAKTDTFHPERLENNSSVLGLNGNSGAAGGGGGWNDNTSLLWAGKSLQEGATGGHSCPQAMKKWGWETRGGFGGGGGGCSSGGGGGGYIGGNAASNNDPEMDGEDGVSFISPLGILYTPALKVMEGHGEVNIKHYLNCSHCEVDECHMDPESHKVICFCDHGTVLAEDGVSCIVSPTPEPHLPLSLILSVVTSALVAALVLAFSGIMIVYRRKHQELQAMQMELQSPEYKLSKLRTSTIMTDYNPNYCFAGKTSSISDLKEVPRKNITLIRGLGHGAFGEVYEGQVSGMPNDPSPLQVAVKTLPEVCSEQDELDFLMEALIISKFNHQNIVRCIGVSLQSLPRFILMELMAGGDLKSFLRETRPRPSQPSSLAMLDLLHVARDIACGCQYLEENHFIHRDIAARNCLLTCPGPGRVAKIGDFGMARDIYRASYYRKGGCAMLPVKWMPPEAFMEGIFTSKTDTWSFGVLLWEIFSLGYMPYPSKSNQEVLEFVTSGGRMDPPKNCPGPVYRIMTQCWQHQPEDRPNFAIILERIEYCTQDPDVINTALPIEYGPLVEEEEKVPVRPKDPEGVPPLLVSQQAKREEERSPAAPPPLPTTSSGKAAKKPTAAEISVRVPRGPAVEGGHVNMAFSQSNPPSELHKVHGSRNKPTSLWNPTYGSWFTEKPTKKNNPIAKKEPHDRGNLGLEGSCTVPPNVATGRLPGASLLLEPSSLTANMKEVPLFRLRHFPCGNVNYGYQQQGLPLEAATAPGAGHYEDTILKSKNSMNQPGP
Description: Meanwhile, The LanthaScreen® Eu Kinase Binging Assay (TR-FRET) method was used for determining ALK Mutants (such as ALK L1196M) inhibitory activity IC50. LanthaScreen Eu kinase binding experiment detected Alexa Fluor conjugate or kinase “tracer” binding by adding Eu labeled antibodies or anti-label antibodies. The combination of tracer and antibody with kinase leads to a high level of FRET, whereas the use of kinase inhibitors in place of tracer may cause FRET loss.
as §1

[3] = target: T3, TEL-ALK-F1174L-BaF3 (Homo sapiens, UniProt Q9UM73, F1174L, cells depend on it); assay: Cell proliferation experiment (Cell-Titer GLO), TEL-ALK-F1174L-BaF3; type: cell-based; details: 72 h, read-out: IC50 TEL-ALK F1174L-BaF3
T3 construct: fused on or other part: TEL (ETV6) N-terminal oligomerising part fused before the ALK intracellular/kinase part; P41212 (Transcription factor ETV6)
T3 sequence (Q9UM73 whole entry F1174L, the tested form may be a part): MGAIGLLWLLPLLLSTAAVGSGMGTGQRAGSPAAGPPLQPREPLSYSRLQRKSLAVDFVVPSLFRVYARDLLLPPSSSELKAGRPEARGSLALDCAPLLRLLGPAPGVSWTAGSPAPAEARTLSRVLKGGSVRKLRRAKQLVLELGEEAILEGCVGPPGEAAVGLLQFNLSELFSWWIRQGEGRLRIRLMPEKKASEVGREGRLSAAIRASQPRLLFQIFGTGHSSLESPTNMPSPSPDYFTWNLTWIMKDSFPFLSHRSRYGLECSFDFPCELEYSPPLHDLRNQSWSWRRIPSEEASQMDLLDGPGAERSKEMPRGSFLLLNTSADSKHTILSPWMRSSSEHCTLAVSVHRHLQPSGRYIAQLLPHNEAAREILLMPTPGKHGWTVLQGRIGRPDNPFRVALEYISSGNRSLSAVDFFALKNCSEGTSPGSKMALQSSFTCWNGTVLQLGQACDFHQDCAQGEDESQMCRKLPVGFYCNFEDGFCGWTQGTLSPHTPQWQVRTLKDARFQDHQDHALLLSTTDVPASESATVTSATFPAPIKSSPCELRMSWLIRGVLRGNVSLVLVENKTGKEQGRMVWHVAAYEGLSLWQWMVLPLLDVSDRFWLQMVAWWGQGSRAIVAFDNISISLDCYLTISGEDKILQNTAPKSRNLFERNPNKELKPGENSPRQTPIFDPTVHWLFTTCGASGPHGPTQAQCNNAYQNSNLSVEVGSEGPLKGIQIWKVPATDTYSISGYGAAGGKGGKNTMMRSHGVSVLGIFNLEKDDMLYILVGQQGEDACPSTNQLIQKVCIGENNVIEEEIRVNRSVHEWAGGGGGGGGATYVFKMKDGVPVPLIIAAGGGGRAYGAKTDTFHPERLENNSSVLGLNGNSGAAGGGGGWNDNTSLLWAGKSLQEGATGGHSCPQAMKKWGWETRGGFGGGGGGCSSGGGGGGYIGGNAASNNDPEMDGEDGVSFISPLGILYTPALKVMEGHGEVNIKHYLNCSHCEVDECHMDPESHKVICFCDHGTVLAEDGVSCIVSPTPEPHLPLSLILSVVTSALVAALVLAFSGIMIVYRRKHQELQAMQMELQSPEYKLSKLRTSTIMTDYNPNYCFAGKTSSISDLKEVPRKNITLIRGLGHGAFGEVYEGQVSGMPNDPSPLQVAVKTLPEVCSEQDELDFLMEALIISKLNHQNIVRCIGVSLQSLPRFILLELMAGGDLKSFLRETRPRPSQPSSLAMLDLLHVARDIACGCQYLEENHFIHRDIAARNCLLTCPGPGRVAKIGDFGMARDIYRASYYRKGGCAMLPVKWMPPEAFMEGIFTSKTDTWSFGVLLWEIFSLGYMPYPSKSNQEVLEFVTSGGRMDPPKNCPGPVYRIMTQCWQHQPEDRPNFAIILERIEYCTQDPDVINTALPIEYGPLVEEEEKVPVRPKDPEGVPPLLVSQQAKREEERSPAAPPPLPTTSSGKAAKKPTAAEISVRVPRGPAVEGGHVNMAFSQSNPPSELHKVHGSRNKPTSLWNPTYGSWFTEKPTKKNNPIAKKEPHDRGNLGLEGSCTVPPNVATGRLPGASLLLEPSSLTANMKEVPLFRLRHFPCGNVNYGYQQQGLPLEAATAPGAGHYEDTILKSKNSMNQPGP
Protocol: (§2) Compounds to be tested: Positive compound Ceritinib and the compounds obtained by the examples of the present invention.
(§3) Cell lines: Karpas-299 and NCI-H3122 which were purchased from the Nanjing kebai biotechnology Co. LTD; TEL-ALK-F1174L-BaF3, TEL-ALK-G1202R-BaF3, TEL-ALK-C1156Y-BaF3 and TEL-ALK-L1196M-BaF3 which were purchased from Hefei zhongkopruisheng biological medicine technology Co. LTD.
(§4) Method: Cells were seeded in 96-well plates for 24 h in growth media containing 10% fetalbovine serum (FBS) and cultured overnight at 37° C. The following day, serial dilutions of compounds or appropriate control were added to the designated wells, and cells were incubated at 37° C. for 72 h. A Cell Titer Glo assay (Promega) was then performed to determine the relative cell numbers. IC50 values were calculated by concentration-response curve fitting using a four-parameter analytical method with Graphpad 6.0. Drug inhibition rate (%)=100%−[OD(Compound)−OD(blank)]/[OD(vehicle)−OD(blank)]×100% Equation: […]

[4] = target: T4, TEL-ALK-G1202R-BaF3 (Homo sapiens, UniProt Q9UM73, G1202R, cells depend on it); assay: Cell proliferation experiment (Cell-Titer GLO), TEL-ALK-G1202R-BaF3; type: cell-based; details: 72 h, read-out: IC50 TEL-ALK G1202R-BaF3
T4 construct: fused on or other part: TEL (ETV6) N-terminal oligomerising part fused before the ALK intracellular/kinase part; P41212 (Transcription factor ETV6)
T4 sequence (Q9UM73 whole entry G1202R, the tested form may be a part): as the sequence (Q9UM73 whole entry F1174L, the tested form may be a part) above, with L1174F, G1202R counted along it
Protocol: as §2, §3, §4

[5] = system: NCI-H3122; assay: Cell proliferation experiment (Cell-Titer GLO), NCI-H3122; type: cell-based; details: Homo sapiens, 72 h
Protocol: as §2, §3, §4

T1 sequence (Q9UM73 19-1620): as the sequence (Q9UM73 19-1620 L1196M) above, with M1178L counted along it

| SMILES | IC50 [1] | IC50 [2] | GI50 [3] | GI50 [4] | IC50 [5] |
| --- | --- | --- | --- | --- | --- |
| CCn1cc(Nc2nc(Nc3cc(C)c(C4CCNCC4)c4c3O[C@H](C)C4)ncc2Cl)c(S(=O)(=O)C(C)C)n1 [REX-D33, (R)-5-chloro-N^2-(2,5-dimethyl-4-(piperidin-4-yl)-2,3-dihydrobenzofuran-7-yl)-N^4-(1-ethyl-3-(isopropylsulfonyl)-1H-pyrazol-4-yl)pyrimidine-2,4-diamine] | 0.0155 µM | 0.002 µM | 0.0334 µM | > 0.18 µM | 0.0117 µM |
| CC(=O)N1CCC(c2c(C)cc(Nc3ncc(Cl)c(Nc4cn(C)nc4S(=O)(=O)C(C)C)n3)c3c2C[C@@H](C)O3)CC1 [REX-D12, (R)-1-(4-(7-((5-chloro-4-((3-(isopropylsulfonyl)-1-methyl-1H-pyrazol-4-yl)amino)pyrimidin-2-yl)amino)-2,5-dimethyl-2,3-dihydrobenzofuran-4-yl)piperidin-1-yl)ethanone] | 0.00921 µM | 0.00107 µM | 0.0116 µM | > 0.18 µM | 0.0107 µM |
| Cc1cc(Nc2ncc(Cl)c(Nc3cn(C4CC4)nc3S(=O)(=O)C(C)C)n2)c2c(c1C1CCNCC1)C[C@@H](C)O2 [REX-D31, (R)-5-chloro-N^4-(1-cyclopropyl-3-(isopropylsulfonyl)-1H-pyrazol-4-yl)-N^2-(2,5-dimethyl-4-(piperidin-4-yl)-2,3-dihydrobenzofuran-7-yl)pyrimidine-2,4-diamine] | 0.0151 µM | 0.00192 µM | 0.138 µM | > 0.18 µM | 0.0404 µM |

The next lines start with the values.

| IC50 [1] | IC50 [2] | GI50 [3] | GI50 [4] | IC50 [5] | SMILES |
| --- | --- | --- | --- | --- | --- |
| 0.0158 µM | 0.00102 µM | 0.0518 µM | > 0.18 µM | 0.0118 µM | Cc1cc(Nc2ncc(C(F)(F)F)c(Nc3cn(C4CC4)nc3S(=O)(=O)C(C)C)n2)c2c(c1C1CCN(C)CC1)C[C@@H](C)O2 [REX-D9, (R)—N^4-(1-cyclopropyl-3-(isopropylsulfonyl)-1H-pyrazol-4-yl)-N^2-(2,5-dimethyl-4-(1-methylpiperidin-4-yl)-2,3-dihydrobenzofuran-7-yl)-5-(trifluoromethyl)pyrimidine-2,4-diamine] |
| 0.0171 µM | < 0.0005 µM | < 0.2 µM | > 0.18 µM | 0.0142 µM | Cc1cc(Nc2ncc(C(F)(F)F)c(Nc3cn(C)nc3S(=O)(=O)CC(C)C)n2)c2c(c1C1CCN(C)CC1)C[C@@H](C)O2 [REX-D10, (R)—N^2-(2,5-dimethyl-4-(1-methylpiperidin-4-yl)-2,3-dihydrobenzofuran-7-yl)-N^4-(3-(isobutylsulfonyl)-1-methyl-1H-pyrazol-4-yl)-5-(trifluoromethyl)pyrimidine-2,4-diamine] |
| 0.0193 µM | 0.00386 µM | < 0.2 µM | > 0.18 µM | 0.0572 µM | Cc1cc(Nc2ncc(Cl)c(Nc3cn(C(C)C)nc3S(=O)(=O)C(C)C)n2)c2c(c1C1CCNCC1)C[C@@H](C)O2 [REX-D32, (R)-5-chloro-N^2-(2,5-dimethyl-4-(piperidin-4-yl)-2,3-dihydrobenzofuran-7-yl)-N^4-(1-isopropyl-3-(isopropylsulfonyl)-1H-pyrazol-4-yl)pyrimidine-2,4-diamine] |
